Test results taken from paper PMC3156385 (Chemical research in toxicology, 2011).

Legend:
[1] = biological target: T1, P450 2A13 (Homo sapiens, UniProt Q16696); assay: Spectral binding titration with purified recombinant P450 2A13; details: for ΔAmax/Ks / ΔAmax: Type I binding, 1 µM P450; for ΔAmax: means ± SE
T1 sequence (Q16696 1-494): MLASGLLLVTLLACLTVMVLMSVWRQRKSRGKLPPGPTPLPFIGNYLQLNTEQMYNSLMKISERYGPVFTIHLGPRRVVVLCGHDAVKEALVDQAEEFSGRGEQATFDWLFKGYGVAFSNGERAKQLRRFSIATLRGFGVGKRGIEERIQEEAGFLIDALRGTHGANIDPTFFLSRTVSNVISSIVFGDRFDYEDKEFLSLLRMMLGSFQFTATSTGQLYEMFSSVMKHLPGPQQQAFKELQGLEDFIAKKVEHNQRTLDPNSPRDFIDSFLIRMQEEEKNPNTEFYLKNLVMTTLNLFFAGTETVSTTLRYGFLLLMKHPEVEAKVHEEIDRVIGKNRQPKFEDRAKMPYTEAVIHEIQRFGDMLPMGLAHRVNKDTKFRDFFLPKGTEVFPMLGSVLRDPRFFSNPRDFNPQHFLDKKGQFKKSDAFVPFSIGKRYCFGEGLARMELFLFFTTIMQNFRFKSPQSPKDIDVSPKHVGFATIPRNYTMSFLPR

[2] = biological target: T2, P450 1A2 (Homo sapiens, UniProt P05177); assay: Inhibition of P450 1A2-dependent EROD activity; type: biochemical
T2 sequence (P05177 1-516): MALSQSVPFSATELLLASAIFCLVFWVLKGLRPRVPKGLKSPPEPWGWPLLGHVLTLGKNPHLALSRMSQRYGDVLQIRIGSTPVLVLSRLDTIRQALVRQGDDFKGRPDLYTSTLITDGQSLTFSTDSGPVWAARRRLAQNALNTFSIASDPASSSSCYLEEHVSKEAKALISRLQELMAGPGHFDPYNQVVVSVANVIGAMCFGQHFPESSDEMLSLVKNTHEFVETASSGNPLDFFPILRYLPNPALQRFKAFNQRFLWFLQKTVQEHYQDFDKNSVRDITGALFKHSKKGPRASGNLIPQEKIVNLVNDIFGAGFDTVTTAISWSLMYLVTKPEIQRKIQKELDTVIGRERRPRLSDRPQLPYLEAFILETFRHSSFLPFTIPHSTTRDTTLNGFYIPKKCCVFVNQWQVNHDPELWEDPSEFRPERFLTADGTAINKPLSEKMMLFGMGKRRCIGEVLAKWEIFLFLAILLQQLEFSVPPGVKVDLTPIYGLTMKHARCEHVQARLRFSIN

[3] = biological target: T3, P450 1A1 (Homo sapiens, UniProt P04798); assay: Inhibition of P450 1A1-dependent EROD activity; type: biochemical
T3 sequence (P04798 1-512): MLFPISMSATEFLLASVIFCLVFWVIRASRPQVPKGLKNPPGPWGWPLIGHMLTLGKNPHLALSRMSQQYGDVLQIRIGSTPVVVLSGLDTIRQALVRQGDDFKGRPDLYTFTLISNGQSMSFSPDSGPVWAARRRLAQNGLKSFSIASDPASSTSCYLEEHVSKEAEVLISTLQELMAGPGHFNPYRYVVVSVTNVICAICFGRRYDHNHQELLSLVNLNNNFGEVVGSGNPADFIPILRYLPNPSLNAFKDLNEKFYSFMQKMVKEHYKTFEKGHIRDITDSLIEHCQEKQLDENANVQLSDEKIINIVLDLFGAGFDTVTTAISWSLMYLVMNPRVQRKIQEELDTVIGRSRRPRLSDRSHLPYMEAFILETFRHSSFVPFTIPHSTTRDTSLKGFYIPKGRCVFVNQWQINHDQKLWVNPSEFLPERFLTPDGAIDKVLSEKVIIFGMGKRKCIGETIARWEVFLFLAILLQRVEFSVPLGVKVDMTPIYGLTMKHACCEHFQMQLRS

[4] = biological target: T4, P450 1B1 (Homo sapiens, UniProt Q16678); assay: Inhibition of P450 1B1-dependent EROD activity; type: biochemical
T4 sequence (Q16678 1-543): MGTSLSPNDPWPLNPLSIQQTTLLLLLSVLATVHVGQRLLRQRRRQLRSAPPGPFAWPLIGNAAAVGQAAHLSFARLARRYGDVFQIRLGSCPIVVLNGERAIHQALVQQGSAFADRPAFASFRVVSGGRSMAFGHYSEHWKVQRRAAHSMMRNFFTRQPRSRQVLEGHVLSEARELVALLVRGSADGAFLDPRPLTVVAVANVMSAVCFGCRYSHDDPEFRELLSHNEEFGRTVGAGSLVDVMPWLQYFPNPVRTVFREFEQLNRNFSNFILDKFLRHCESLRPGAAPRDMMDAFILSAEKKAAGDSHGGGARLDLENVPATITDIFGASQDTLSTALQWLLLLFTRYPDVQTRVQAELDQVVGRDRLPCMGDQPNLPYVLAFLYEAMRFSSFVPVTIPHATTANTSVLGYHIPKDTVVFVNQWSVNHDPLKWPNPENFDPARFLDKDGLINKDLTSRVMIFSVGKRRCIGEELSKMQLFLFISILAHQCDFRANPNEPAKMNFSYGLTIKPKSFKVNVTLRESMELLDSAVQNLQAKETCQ

[5] = biological target: T5, P450 2A6 (Homo sapiens, UniProt P11509); assay: Inhibition of P450 2A6-dependent coumarin 7-hydroxylation; type: biochemical
T5 sequence (P11509 1-494): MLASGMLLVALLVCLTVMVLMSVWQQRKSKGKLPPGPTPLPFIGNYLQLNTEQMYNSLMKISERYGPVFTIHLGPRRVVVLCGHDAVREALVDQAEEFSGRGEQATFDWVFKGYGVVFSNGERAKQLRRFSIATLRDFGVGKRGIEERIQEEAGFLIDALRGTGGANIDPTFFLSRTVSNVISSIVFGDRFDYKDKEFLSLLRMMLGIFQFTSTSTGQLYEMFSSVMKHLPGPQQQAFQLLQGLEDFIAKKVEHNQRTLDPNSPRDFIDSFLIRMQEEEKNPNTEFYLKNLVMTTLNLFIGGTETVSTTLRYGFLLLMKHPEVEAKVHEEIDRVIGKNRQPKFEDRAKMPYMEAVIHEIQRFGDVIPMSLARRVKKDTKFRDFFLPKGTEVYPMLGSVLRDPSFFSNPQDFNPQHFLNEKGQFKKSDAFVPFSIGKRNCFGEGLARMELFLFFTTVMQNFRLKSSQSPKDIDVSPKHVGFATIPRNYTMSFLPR

[6] = biological target: T5, P450 2A6; assay: Spectral binding titration with purified recombinant P450 2A6; details: for ΔAmax/Ks / ΔAmax: Type I binding, 1 µM P450; for ΔAmax: means ± SE
[7] = biological target: T1, P450 2A13; assay: Inhibition of P450 2A13-dependent coumarin 7-hydroxylation; type: biochemical
[8] = biological target: T2, P450 1A2; assay: Spectral binding titration with purified recombinant P450 1A2; details: for ΔAmax/Ks / ΔAmax: Reverse Type I binding, 1 µM P450; for ΔAmax: means ± SE
[9] = biological target: T3, P450 1A1; assay: Spectral binding titration with purified recombinant P450 1A1; details: for ΔAmax/Ks / ΔAmax: Reverse Type I binding, 1 µM P450; for ΔAmax: means ± SE
[10] = biological target: T4, P450 1B1; assay: Spectral binding titration with purified recombinant P450 1B1; details: for ΔAmax/Ks / ΔAmax: Reverse Type I binding, 1 µM P450; for ΔAmax: means ± SE
[11] = rats; cited from earlier work

Compound: N#C[Se]Cc1ccccc1C[Se]C#N [o-XSC, 1,2-phenylenebis(methylene)selenocyanate]
- Kd [1]: 750 ± 44 nM
- ΔAmax/Ks [1]: 92.00 × 10^−3
- ΔAmax [1]: 69 ± 0.49 × 10^−3
- IC50 [2]: 390 ± 42 nM
- IC50 [3]: 110 ± 21 nM
- IC50 [4]: 140 ± 27 nM
- IC50 [5]: 2700 ± 340 nM
- Kd [6]: 5100 ± 450 nM
- ΔAmax/Ks [6]: 7.80 × 10^−3
- ΔAmax [6]: 40 ± 0.82 × 10^−3
- IC50 [7]: 1200 ± 130 nM
- ΔAmax/Ks [8]: 0.38 × 10^−3
- ΔAmax [8]: 2.4 ± 0.20 × 10^−3
- Kd [9]: 26000 ± 4600 nM
- ΔAmax/Ks [9]: 0.77 × 10^−3
- ΔAmax [9]: 20 ± 1.2 × 10^−3
- Kd [10]: 4600 ± 750 nM
- ΔAmax/Ks [10]: 3.30 × 10^−3
- ΔAmax [10]: 15 ± 0.51 × 10^−3

Compound: N#C[Se]Cc1ccc(C[Se]C#N)cc1 [p-XSC, 1,4-phenylenebis(methylene)selenocyanate]
- Kd [1]: 1500 ± 280 nM
- ΔAmax/Ks [1]: 46.00 × 10^−3
- ΔAmax [1]: 69 ± 2.6 × 10^−3
- IC50 [2]: 630 ± 59 nM
- IC50 [3]: 260 ± 31 nM
- IC50 [4]: 160 ± 9 nM
- IC50 [5]: 6200 ± 550 nM
- Kd [6]: 14000 ± 1900 nM
- ΔAmax/Ks [6]: 2.20 × 10^−3
- ΔAmax [6]: 31 ± 1.2 × 10^−3
- IC50 [7]: 1400 ± 210 nM
- Kd [8]: 12000 ± 1200 nM
- ΔAmax/Ks [8]: 0.81 × 10^−3
- ΔAmax [8]: 9.7 ± 0.40 × 10^−3
- Kd [9]: 19000 ± 1600 nM
- ΔAmax/Ks [9]: 0.45 × 10^−3
- ΔAmax [9]: 8.6 ± 0.24 × 10^−3
- Kd [10]: 3600 ± 330 nM
- ΔAmax/Ks [10]: 5.83 × 10^−3
- ΔAmax [10]: 21 ± 0.48 × 10^−3

Compound: N#C[Se]Cc1ccc(C[Se]C#N)cc1 [p-[^14C]XSC, 1,4-[^14C]phenylenebis(methylene)selenocyanate]
- cumulative percentage of radioactivity excreted in feces [11]: 75%
- cumulative percentage of radioactivity excreted in urine [11]: 24%
